Read-outs that look alike come from different tables or passages of the source.

Results on three molecules are retold here after paper PMC11876601 (Molecular Systems Biology, 2025).

The target of one assay is IKBKE. The following applies: 5 cell line mix lysate, Kinobeads ε, ref Reinecke et al. (2023), cited from earlier work.
In the next assay the test system is RPS6KA1. The arrangement: method as in Reinecke et al. (2023). The following applies: RPS6KA1, 5 cell line mix lysate, Kinobeads ε, ref Reinecke et al. (2023), cited from earlier work.
A further assay relates to PRKAB1. Also noted: method as in Reinecke et al. (2023). The following applies: PRKAB1, 5 cell line mix lysate, Kinobeads ε, ref Reinecke et al. (2023), cited from earlier work.
Assay [1] concerns HPDE (immortalized pancreatic duct cell line). Nature of the assay: Drug combination viability screen (ATPlite, 72 h). In kind it is cell-based, human. The following applies: HPDE; for EC50: Homo sapiens. (ATP-based viability assays read luminescence as a measure of living cells.)
The next assay relates to PSN-1 cells. Nature of the assay: Drug combination viability screen (ATPlite, 72 h). The format is cell-based, human. The conditions noted are these: for EC50: Homo sapiens, PSN1.
The next assay has as its system PRKAG1. The arrangement: method as in Klaeger et al. (2017). The following applies: lysate 4 cell line mix (Colo205, K-562, MV-4-11, and SK-N-BE(2)), Kinobeads y, ref Klaeger et al. (2017); cited from earlier work.
In another assay the test system is TBK1. Also noted: method as in Klaeger et al. (2017). The conditions noted are these: lysate 4 cell line mix (Colo205, K-562, MV-4-11, and SK-N-BE(2)), Kinobeads y, ref Klaeger et al. (2017); cited from earlier work.
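For AUC in this document: area under vehicle-normalized viability curve scaled 0 to 100 percent.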
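For Curve bottom in this document: fraction of vehicle control viability from four-parameter log-logistic fit.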

In the case of `COc1cc(N2CCC(N3CCN(C)CC3)CC2)ccc1Nc1ncc(Cl)c(Nc2ccccc2P(C)(C)=O)n1` [Brigatinib], the Kd on IKBKE (read-out: KDapp) was 2520 nM; on RPS6KA1 (read-out: KDapp), 283 nM; at PRKAB1 (read-out: KDapp), 335 nM. Further, the EC50 with IKBKE was 4060 nM; in the assay with RPS6KA1, 376 nM; in the assay on PRKAB1, 507 nM. The pKDapp is on record as 5.60 at IKBKE, 6.55 at RPS6KA1 and 6.47 at PRKAB1.

On to `Nc1ccn([C@@H]2O[C@H](CO)[C@@H](O)C2(F)F)c(=O)n1` [GEM, Gemcitabine], for which the Reponse in assay [1] (R1, 13.72 nM) is 2430360; in assay [1] (R1, 41.15 nM), 2458400; in assay [1] (R1, […] nM), 2746800; in assay [1] (R1, 370.37 nM), 2410520; in assay [1] (R1, 1111.11 nM), 2265000; in assay [1] (R1, 3333.33 nM), 1887440. For the same molecule, the Reponse in assay [1] (R1, 10000 nM) is listed as 1259640; in assay [1] (R2, 13.72 nM), 3059000; in assay [1] (R2, 41.15 nM), 2844720; in assay [1] (R2, […] nM), 2708840; in assay [1] (R2, 370.37 nM), 2516400; in assay [1] (R2, 1111.11 nM), 2343080. The Reponse in assay [1] (R2, 3333.33 nM) amounted to 1957840; in assay [1] (R2, 10000 nM), 1504480; in the assay with PSN-1 cells (PSN-1, R1, 13.72 nM) it was 1225440; in the assay with PSN-1 cells (PSN-1, R1, 41.15 nM), 969400; in the assay with PSN-1 cells (PSN-1, R1, […] nM) it was 806840; in the assay on PSN-1 cells (PSN-1, R1, 370.37 nM) it was 818640. Also, the Reponse was determined as 786440 with PSN-1 cells (PSN-1, R1, 1111.11 nM); 785720 in the assay with PSN-1 cells (PSN-1, R1, 3333.33 nM); 723120 in the assay on PSN-1 cells (PSN-1, R1, 10000 nM); 1542400 in the assay with PSN-1 cells (PSN-1, replicate R2, dose 13.72 nM, raw signal); 1210080 in the assay with PSN-1 cells (PSN-1, replicate R2, dose 41.15 nM, raw signal); 1089000 with PSN-1 cells (PSN-1, replicate R2, dose 123.46 nM, raw signal). The Reponse in the assay with PSN-1 cells (PSN-1, replicate R2, dose 370.37 nM, raw signal) worked out at 1103640; with PSN-1 cells (PSN-1, replicate R2, dose 1111.11 nM, raw signal) it was 1004960; in the assay with PSN-1 cells (PSN-1, replicate R2, dose 3333.33 nM, raw signal), 1071400; with PSN-1 cells (PSN-1, replicate R2, dose 10000 nM, raw signal), 1052080. The Curve bottom in assay [1] (GEM curve fit) worked out at 0.27; with PSN-1 cells (PSN-1, GEM curve fit) it was 0.11. Also, the Curve effect size turned out to be 0.73 in assay [1] (GEM curve fit) and 0.89 in the assay with PSN-1 cells (PSN-1, GEM curve fit). Moreover, the Curve slope in assay [1] (GEM curve fit) was determined as 1.67; with PSN-1 cells (PSN-1, GEM curve fit) it was 2.16. The Curve top in assay [1] (GEM curve fit) stood at 1.00; in the assay with PSN-1 cells (PSN-1, GEM curve fit), 1.03. Further, the AUC in assay [1] (GEM curve fit, in %) worked out at 48.78; in the assay on PSN-1 cells (PSN-1, GEM curve fit) it was 35.4%. For the same molecule, the EC50 in assay [1] (read-out: EC50) was 4.34 nM; in assay [1] (read-out: pEC50 (converted)), 4.37 nM; with PSN-1 cells (read-out: EC50), 3.44 nM; with PSN-1 cells (read-out: pEC50 (converted)), 3.47 nM.

Consider `C[C@]12O[C@H](C[C@]1(O)CO)n1c3ccccc3c3c4c(c5c6ccccc6n2c5c31)CNC4=O` [Lestaurtinib], for which the EC50 in the assay with PRKAG1 is 1400 nM; with TBK1 it was […].
